Columns and labels:
TLR3 [1] = target: T1, TLR3 (Homo sapiens, UniProt O15455); test: Fluorescence anisotropy assay, competition with Rhodamine labeled Poly IC; type: binding
T1 construct: purchased R &D
T1 sequence (O15455 24-904): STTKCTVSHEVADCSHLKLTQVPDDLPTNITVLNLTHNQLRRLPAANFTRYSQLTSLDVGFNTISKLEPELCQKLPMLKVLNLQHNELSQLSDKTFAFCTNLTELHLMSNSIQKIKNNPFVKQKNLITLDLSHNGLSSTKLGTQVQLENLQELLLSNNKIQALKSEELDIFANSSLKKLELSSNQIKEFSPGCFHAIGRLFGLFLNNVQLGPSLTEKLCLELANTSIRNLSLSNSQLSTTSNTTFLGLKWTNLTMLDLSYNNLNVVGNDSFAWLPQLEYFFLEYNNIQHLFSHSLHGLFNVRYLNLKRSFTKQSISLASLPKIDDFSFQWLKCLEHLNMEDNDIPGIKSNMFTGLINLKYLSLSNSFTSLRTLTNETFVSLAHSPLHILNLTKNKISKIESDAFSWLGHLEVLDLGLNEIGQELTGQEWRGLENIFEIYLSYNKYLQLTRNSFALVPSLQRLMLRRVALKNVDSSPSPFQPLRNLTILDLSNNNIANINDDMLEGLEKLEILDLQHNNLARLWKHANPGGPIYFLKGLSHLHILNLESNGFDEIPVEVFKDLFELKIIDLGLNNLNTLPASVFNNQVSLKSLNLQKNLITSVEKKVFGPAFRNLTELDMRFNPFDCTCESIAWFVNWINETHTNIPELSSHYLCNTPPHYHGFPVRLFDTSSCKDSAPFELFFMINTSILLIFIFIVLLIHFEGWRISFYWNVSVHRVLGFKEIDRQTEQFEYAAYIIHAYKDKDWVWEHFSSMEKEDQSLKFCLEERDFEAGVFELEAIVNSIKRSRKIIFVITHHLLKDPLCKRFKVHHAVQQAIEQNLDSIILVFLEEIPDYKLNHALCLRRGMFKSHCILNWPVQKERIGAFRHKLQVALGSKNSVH
Experimental: The anisotropy of Rhodamine labeled Poly IC increased from approximately 0.116 to 0.171 upon addition of TLR3 (excitation=546 nm; emission=576 nm).
In 500 μL Tris buffer (pH=7.2) add 5 μL (1 μg/mL) Rhodamine labeled Poly IC (Invivogen), test the anisotropy at excitation of 546 nm and emission of 576 nm (Horiba Fluorolog 3). An addition 3 μL (20 μM) of TLR3 (R &D) was added in the buffer, then test the anisotropy again. Following, 4a was added in the buffer from 0 to 68 μM, and the fluorescence anisotropy was tested when the concentration was changed.

TLR3 [2] = target: T2, TLR3 (Mus musculus, UniProt Q99MB1); test: In vitro TLR3 inhibition assay: Poly IC-induced NO production in RAW 264.7 cells; type: cell-based; settings: whole cell inhibitory activity
T2 construct: endogenous in cells; host or cells: RAW 264.7
T2 sequence (Q99MB1 26-905): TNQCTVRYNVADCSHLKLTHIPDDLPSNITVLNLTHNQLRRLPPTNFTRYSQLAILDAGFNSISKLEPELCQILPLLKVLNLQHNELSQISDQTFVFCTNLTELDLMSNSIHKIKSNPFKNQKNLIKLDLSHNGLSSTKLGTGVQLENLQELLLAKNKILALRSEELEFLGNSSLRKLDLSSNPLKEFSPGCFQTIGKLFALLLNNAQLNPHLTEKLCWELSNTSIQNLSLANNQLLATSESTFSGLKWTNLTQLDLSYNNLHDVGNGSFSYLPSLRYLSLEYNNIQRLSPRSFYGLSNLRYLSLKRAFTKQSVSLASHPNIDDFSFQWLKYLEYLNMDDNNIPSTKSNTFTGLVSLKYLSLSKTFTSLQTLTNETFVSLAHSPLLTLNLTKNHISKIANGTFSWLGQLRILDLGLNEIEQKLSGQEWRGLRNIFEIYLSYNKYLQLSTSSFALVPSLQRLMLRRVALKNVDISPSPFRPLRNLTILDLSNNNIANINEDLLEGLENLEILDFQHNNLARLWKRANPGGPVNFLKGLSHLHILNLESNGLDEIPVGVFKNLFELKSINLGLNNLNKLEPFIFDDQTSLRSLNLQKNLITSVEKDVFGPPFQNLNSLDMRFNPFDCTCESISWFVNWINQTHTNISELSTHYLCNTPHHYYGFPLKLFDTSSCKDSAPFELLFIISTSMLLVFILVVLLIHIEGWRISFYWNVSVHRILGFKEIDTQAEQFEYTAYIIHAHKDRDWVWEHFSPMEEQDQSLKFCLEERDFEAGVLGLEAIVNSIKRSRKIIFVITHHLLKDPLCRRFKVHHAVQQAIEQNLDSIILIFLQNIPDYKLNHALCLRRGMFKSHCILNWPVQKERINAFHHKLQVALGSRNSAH
Text: The initial hits (Figure A) were first evaluated using the present inventors' previously established high-throughput cell assay of TLR3 activation. See, for example, ACS Med. Chem. Lett. 2010, 1, 194 and Bioorg. Med. Chem. Lett., 2010, 20, 5411. Poly IC (Polyriboinosinic:polyribocytidylic acid) has been reported to selectively activate TLR3 signaling, resulting in the activation of nitric oxide synthase and the production nitric oxide (NO) in RAW 264.7 macrophage cells. The NO level was monitored as an indicator of Poly IC-induced TLR3 activation to evaluate the drug's inhibitory activity.
RAW 264.7 (Mouse leukaemic monocyte macrophage cell line) cells were grown in RPMI 1640 medium, supplemented with 10% FBS, penicillin (100 U/mL) and streptomycin ([…]). RAW cells were then planted in 96-well plates at 100,000 cells per well and grown for 24 h in the media descried previously at 37° C. in a 5% CO2 humidified incubator. After 24 h, non-adherent cells and media were removed and replaced with fresh RPMI 1640 medium (only RPMI). The adherent macrophages were treated with high molecular weight polyinosine-polycytidylic acid (Poly IC) (10 μg/mL) (Invivogen), an agonist of TLR3, and then added different concentrates of potential inhibitor. Two rows were only treated with Poly IC as an control. Plates were then incubated for an additional 24 h. Following incubation 100 μL of media was removed and added to flat black 96-well microfluor plates (Thermo Scientific, MA, USA). To each well, 10 μL of 2,3-diaminonaphthalene (0.05 mg/mL in 0.62 M aqueous HCl solution) was added and incubated for 15 min in the dark. The reaction was quenched by addition of 5 μL of a 3 M aqueous NaOH solution and the plate was read on Beckman Coulter DTX880 reader (Beckman Coulter, Calif., USA) with excitation at 365 nm and emission at 450 nm. The nitrite (a stable metabolite of nitric oxide) concentration was determined from a nitrite standard curve. The inhibition rate (%) of NO release was determined using the following formula: Inhibition (%)=[Poly IC(OD450)−Compounds (OD450)]/[Poly IC(OD450)−Control (OD450)]×100. The IC50 values for both inhibition and cytotoxicity were determined graphically using software Origin v7.5.

[3] = Poly IC-induced NO, RAW 264.7, average ± SD, at least three independent tests

| Structure (SMILES) | IC50 (TLR3 [2]; [3]) [µM] | IC50 (TLR3 [2]; second part of Table 1 (R5/R6 series)) [µM] | TLR3 binding competition with dsRNA (TLR3 [1]) |
| --- | --- | --- | --- |
| O=C(N[C@H](Cc1ccccc1)C(=O)O)c1sc2ccc(F)cc2c1Cl [Compound 12a, (R)-2-(3-chloro-5-fluorobenzo[b]thiophene-2-carboxamido)-3-phenylpropanoic acid] | 47.3 ± 4.1 |  |  |
| O=C(N[C@@H](Cc1ccccc1)C(=O)O)c1sc2cc(F)c(F)cc2c1Cl [Compound 8b, (S)-2-(3-chloro-5,6-difluorobenzo[b]thiophene-2-carboxamido)-3-phenylpropanoic acid] | 79.5 ± 3.4 |  |  |
| O=C(N[C@@H](Cc1ccccc1)C(=O)O)c1sc2cc(C(F)(F)F)ccc2c1Cl [Compound 5b, (S)-2-(3-chloro-6-(trifluoromethyl)benzo[b]thiophene-2-carboxamido)-3-phenylpropanoic acid] | 19.8 ± 3.6 |  |  |
| O=C(O)[C@H](Cc1ccc(O)cc1)NS(=O)(=O)c1cccc(F)c1 [Compound 18b, (S)-2-(3-fluorophenylsulfonamido)-3-(4-hydroxyphenyl)propanoic acid] |  | > 100 |  |

Now from value to compound, other results behind:

| IC50 (TLR3 [2]; [3]) [µM] | IC50 (TLR3 [2]; second part of Table 1 (R5/R6 series)) [µM] | Structure (SMILES) | TLR3 binding competition with dsRNA (TLR3 [1]) |
| --- | --- | --- | --- |
| > 155 |  | O=C(N[C@H](Cc1ccccc1)C(=O)O)c1cc2ccccc2s1 [Compound 1a, (R)-2-(benzo[b]thiophene-2-carboxamido)-3-phenylpropanoic acid] | does not show any significant binding to TLR3 |
| 11.8 ± 2.5 |  | O=C(N[C@@H](Cc1ccccc1)C(=O)O)c1sc2cc(Cl)ccc2c1Cl [Compound 3b, (S)-2-(3,6-dichlorobenzo[b]thiophene-2-carboxamido)-3-phenylpropanoic acid] |  |
